Results as given in PubChem BioAssay (NCI).
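Five concentrations, 48 hours, 96-well plates. GI50: concentration for 50% inhibition of growth. At the TGI there is no net growth.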

Tests used:
Assay in all cases: NCI anticancer screen, dose series, 48 h
NCI/ADR-RES ovarian = tested on: NCI/ADR-RES ovarian
SW-620 colon = tested on: SW-620 colon
RPMI-8226 leukemia = tested on: RPMI-8226 leukemia
BT-549 breast = tested on: BT-549 breast
M14 melanoma = tested on: M14 melanoma
SNB-75 CNS = tested on: SNB-75 CNS
MDA-MB-435 = tested on: MDA-MB-435
OVCAR-4 ovarian = tested on: OVCAR-4 ovarian
MDA-MB-231 breast = tested on: MDA-MB-231 breast
A498 renal = tested on: A498 renal

Row | SMILES | GI50 (NCI/ADR-RES ovarian) | TGI (NCI/ADR-RES ovarian) | GI50 (SW-620 colon) | TGI (SW-620 colon) | GI50 (RPMI-8226 leukemia) | TGI (RPMI-8226 leukemia) | GI50 (BT-549 breast) | TGI (BT-549 breast) | GI50 (M14 melanoma) | TGI (M14 melanoma) | GI50 (SNB-75 CNS) | TGI (SNB-75 CNS) | GI50 (MDA-MB-435) | TGI (MDA-MB-435) | GI50 (OVCAR-4 ovarian) | TGI (OVCAR-4 ovarian) | GI50 (MDA-MB-231 breast) | TGI (MDA-MB-231 breast) | GI50 (A498 renal) | TGI (A498 renal)
1 | CCOC(=O)c1c(NC(=O)c2ccccc2)sc2c3c(ccc12)OCN(C)C3 | 1.59 µM | 3.32 µM | 1.63 µM | 3.32 µM | 1.69 µM | 3.87 µM | 5.76 µM | 19.5 µM | 1.74 µM | 3.29 µM | 1.4 µM | 2.74 µM | 1.64 µM | 3.02 µM | 1.75 µM | 3.13 µM | 1.85 µM | 3.52 µM | 1.65 µM | 3.21 µM
2 | CCN(CC)CCC(CNc1ccnc2cc(Cl)ccc12)c1ccccc1 (stereo not given) | 9.92 µM | 48.4 µM | 4.81 µM | 22.2 µM | 3.11 µM | 13.5 µM | 10.8 µM | 24.6 µM | 1.71 µM | 3.19 µM | 2.61 µM | 9.82 µM | 2.01 µM | 5.02 µM | 5.89 µM | 35.7 µM | 2.18 µM | 15.8 µM | 2.41 µM | 13 µM
3 | NC(Cc1c[nH]c2ccc(F)cc12)C(=O)O (stereo not given) | 675 µM | > 2500 µM | 1170 µM | > 2500 µM | 1240 µM | > 2500 µM | 580 µM | 1620 µM | 643 µM | > 2500 µM | 489 µM | 1390 µM | 785 µM | > 2500 µM | 953 µM | > 2500 µM | 600 µM | 1670 µM | 580 µM | 1630 µM
